The target in test [1] is T1, Recombinant human IKKβ (residues 1-737) (Homo sapiens, UniProt O14920).
T1 construct: Recombinant human IKKβ (residues 1-737); GST (C); made in house
T1 sequence (O14920 1-737): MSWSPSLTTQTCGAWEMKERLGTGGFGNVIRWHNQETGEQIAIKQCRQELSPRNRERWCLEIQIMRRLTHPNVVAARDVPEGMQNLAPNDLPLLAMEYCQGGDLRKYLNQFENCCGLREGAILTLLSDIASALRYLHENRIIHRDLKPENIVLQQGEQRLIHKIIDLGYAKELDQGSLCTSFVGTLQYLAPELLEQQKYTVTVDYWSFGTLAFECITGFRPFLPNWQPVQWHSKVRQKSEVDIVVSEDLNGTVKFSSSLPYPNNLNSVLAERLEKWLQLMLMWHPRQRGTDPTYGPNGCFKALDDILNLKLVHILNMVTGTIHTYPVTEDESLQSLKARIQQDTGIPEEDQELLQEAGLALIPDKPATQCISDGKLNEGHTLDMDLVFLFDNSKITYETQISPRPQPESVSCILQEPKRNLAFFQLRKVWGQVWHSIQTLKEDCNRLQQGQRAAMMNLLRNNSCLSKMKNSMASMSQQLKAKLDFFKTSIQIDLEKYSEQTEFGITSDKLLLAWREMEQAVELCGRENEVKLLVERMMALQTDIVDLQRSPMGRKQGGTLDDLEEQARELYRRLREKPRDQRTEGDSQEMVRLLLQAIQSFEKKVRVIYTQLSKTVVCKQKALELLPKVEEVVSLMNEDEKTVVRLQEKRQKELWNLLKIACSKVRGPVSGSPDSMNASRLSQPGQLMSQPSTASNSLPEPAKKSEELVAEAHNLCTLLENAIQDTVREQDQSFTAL
In words: IKK2 assay (TR-FRET). The class given is biochemical. The note with it: ATP 1 μM final, read-out: pIC50 against IKK2 (converted). In short, it runs like this:
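Baculovirus-expressed C-terminal GST-tagged IKKβ (0.5-5 nM final) in HEPES pH 7.4, MgCl2, CHAPS, DTT, BSA with 1.7% DMSO; 25 nM GST-IB substrate and 1 μM ATP, 15 min at room temperature. EDTA stop; phospho-Ser32/36 detected by Eu-antibody/APC-anti-GST TR-FRET, 665/620 nm ratio.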

The test system of test [2] is human monocyte stimulated cytokine production (TNF-α). In words: Monocyte assay (LPS-stimulated TNF-α production). It counts as cell-based. The note with it: 24 h, 200 ng/mL LPS, TNF-α by ELISA. In short, it runs like this:
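Human CD14+ monocytes were purified from blood and plated at 1×10^6 cells/mL in RPMI 1640 with 10% FBS. Compound was added 30 min before stimulation with 200 ng/mL LPS (0.1% DMSO final), followed by 24 hrs at 37 C. Supernatant TNF-α was measured by ELISA, and viability by trypan blue exclusion.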
A general note: ELISA stands for enzyme-linked immunosorbent assay.

Experimental findings from US8063071B2 (GlaxoSmithKline, LLC, priority 2007, dated 2011) are described below.

pIC50: −log10 of the molar value. Structures can show the parent of a compound that is named as a salt.

As for `CCCCNCc1cc(-c2cc(C(N)=O)c3[nH]cc(C4CCN(S(=O)(=O)CC)CC4)c3c2)cs1` [Example 121, 5-{5-[(butylamino)methyl]-3-thienyl}-3-[1-(ethylsulfonyl)-4-piperidinyl]-1H-indole-7-carboxamide trifluoroacetate], the IC50 in test [1] was not above 10 µM. In test [2], the pIC50 (commonly the IC50 on a negative log10 scale, so that one unit is a factor of ten) is not below 5.82.

Take `CCS(=O)(=O)N1CCC(c2c[nH]c3c(C(N)=O)cc(-c4csc(CN5CCC[C@@H]5COC)c4)cc23)CC1` [Example 124, 3-[1-(ethylsulfonyl)-4-piperidinyl]-5-[5-({(2R)-2-[(methyloxy)methyl]-1-pyrrolidinyl}methyl)-3-thienyl]-1H-indole-7-carboxamide trifluoroacetate]: in test [1], the IC50 is not above 10 µM. The compound also gave a pIC50 in test [2] not below 5.82.

On to `CCS(=O)(=O)N1CCC(c2c[nH]c3c(C(N)=O)cc(-c4ccc(CCNC)cc4)cc23)CC1` [Example 125, 3-[1-(ethylsulfonyl)-4-piperidinyl]-5-{4-[2-(methylamino)ethyl]phenyl}-1H-indole-7-carboxamide], for which the IC50 in test [1] is not above 10 µM. The compound also had a pIC50 in test [2] not below 5.82.

With `CCCNCCc1ccc(-c2cc(C(N)=O)c3[nH]cc(C4CCN(S(=O)(=O)CC)CC4)c3c2)cc1` [Example 126, 3-[1-(ethylsulfonyl)-4-piperidinyl]-5-{4-[2-(propylamino)ethyl]phenyl}-1H-indole-7-carboxamide], in test [1], the IC50 was not above 10 µM. The pIC50 in test [2] was not below 5.82.

In the case of `CCNCCc1ccc(-c2cc(C(N)=O)c3[nH]cc(C4CCN(S(=O)(=O)CC)CC4)c3c2)cc1` [Example 127, 5-{4-[2-(ethylamino)ethyl]phenyl}-3-[1-(ethylsulfonyl)-4-piperidinyl]-1H-indole-7-carboxamide], the IC50 in test [1] is not above 10 µM. Moreover, the pIC50 in test [2] is not below 5.82.

With `CCS(=O)(=O)N1CCC(c2c[nH]c3c(C(N)=O)cc(-c4ccc(CNC(=O)c5cc(C)nn5C(C)(C)C)cc4)cc23)CC1` [Example 128, 5-{4-[({[1-(1,1-dimethylethyl)-3-methyl-1H-pyrazol-5-yl]carbonyl}amino)methyl]phenyl}-3-[1-(ethylsulfonyl)-4-piperidinyl]-1H-indole-7-carboxamide trifluoroacetate], the IC50 in test [1] was not above 10 µM. The same compound gave a pIC50 in test [2] of less than 6.00.

`CCS(=O)(=O)N1CCC(c2c[nH]c3c(C(N)=O)cc(-c4ccc(CNC(=O)c5ccncc5)cc4)cc23)CC1` [Example 129, 3-[1-(ethylsulfonyl)-4-piperidinyl]-5-(4-{[(4-pyridinylcarbonyl)amino]methyl}phenyl)-1H-indole-7-carboxamide]: the IC50 in test [1] was not above 10 µM. The same compound showed a pIC50 in test [2] not below 5.82.

As for `CCS(=O)(=O)N1CCC(c2c[nH]c3c(C(N)=O)cc(-c4ccc(CNC(=O)C5CCCC5)cc4)cc23)CC1` [Example 130, 5-(4-{[(cyclopentylcarbonyl)amino]methyl}phenyl)-3-[1-(ethylsulfonyl)-4-piperidinyl]-1H-indole-7-carboxamide], in test [1], the IC50 is not above 10 µM. The pIC50 in test [2] was not below 5.82.

In the case of `CCS(=O)(=O)N1CCC(c2c[nH]c3c(C(N)=O)cc(-c4ccc(CNC(=O)c5ccco5)cc4)cc23)CC1` [Example 131, 3-[1-(ethylsulfonyl)-4-piperidinyl]-5-(4-{[(2-furanylcarbonyl)amino]methyl}phenyl)-1H-indole-7-carboxamide], in test [1], the IC50 is not above 10 µM. Also, in test [2], the pIC50 was not below 5.82.

As for `CCS(=O)(=O)N1CCC(c2c[nH]c3c(C(N)=O)cc(-c4ccc(CCNC(=O)C5CCC5)cc4)cc23)CC1` [Example 132, 5-(4-{2-[(cyclobutylcarbonyl)amino]ethyl}phenyl)-3-[1-(ethylsulfonyl)-4-piperidinyl]-1H-indole-7-carboxamide], the IC50 in test [1] is not above 10 µM. The same compound gave a pIC50 in test [2] of less than 6.00.

In the case of `CCS(=O)(=O)N1CCC(c2c[nH]c3c(C(N)=O)cc(-c4ccc(CCNC(=O)C5CCCCC5)cc4)cc23)CC1` [Example 133, 5-(4-{2-[(cyclohexylcarbonyl)amino]ethyl}phenyl)-3-[1-(ethylsulfonyl)-4-piperidinyl]-1H-indole-7-carboxamide], the IC50 in test [1] is not above 10 µM. Further, the pIC50 in test [2] was less than 6.00.

As to `CCS(=O)(=O)N1CCC(c2c[nH]c3c(C(N)=O)cc(-c4cccc(CCNC(=O)C5CCCCC5)c4)cc23)CC1` [Example 134, 5-(3-{2-[(cyclohexylcarbonyl)amino]ethyl}phenyl)-3-[1-(ethylsulfonyl)-4-piperidinyl]-1H-indole-7-carboxamide], in test [1], the IC50 is not above 10 µM. The pIC50 in test [2] was less than 6.00.

`CCN1CCN(c2ccc(-c3cc(C(N)=O)c4[nH]cc(C5CCN(S(=O)(=O)CC)CC5)c4c3)cn2)CC1` [Example 136, 5-[6-(4-ethyl-1-piperazinyl)-3-pyridinyl]-3-[1-(ethylsulfonyl)-4-piperidinyl]-1H-indole-7-carboxamide trifluoroacetate]: the IC50 in test [1] was not above 10 µM. In test [2], this compound gave a pIC50 of less than 6.00.

Take `CCS(=O)(=O)N1CCC(c2c[nH]c3c(C(N)=O)cc(-c4ccc(CNC)cc4)cc23)CC1` [Example 139, 3-[1-(ethylsulfonyl)-4-piperidinyl]-5-{4-[(methylamino)methyl]phenyl}-1H-indole-7-carboxamide trifluoroacetate]: the IC50 in test [1] is not above 10 µM. In test [2], this compound gave a pIC50 not below 5.82.

With `CCS(=O)(=O)N1CCC(c2c[nH]c3c(C(N)=O)cc(-c4ccc(CNC(C)C)cc4)cc23)CC1` [Example 140, 3-[1-(ethylsulfonyl)-4-piperidinyl]-5-(4-{[(1-methylethyl)amino]methyl}phenyl)-1H-indole-7-carboxamide], in test [1], the IC50 is not above 10 µM. Also, in test [2], the pIC50 was less than 6.00.

`CCCNCc1ccc(-c2cc(C(N)=O)c3[nH]cc(C4CCN(S(=O)(=O)CC)CC4)c3c2)cc1` [Example 141, 3-[1-(ethylsulfonyl)-4-piperidinyl]-5-{4-[(propylamino)methyl]phenyl}-1H-indole-7-carboxamide trifluoroacetate]: the IC50 in test [1] is not above 10 µM. For the same compound, the pIC50 in test [2] is not below 5.82.

`CCS(=O)(=O)N1CCC(c2c[nH]c3c(C(N)=O)cc(-c4ccc(CNC5CCCC5)cc4)cc23)CC1` [Example 143, 5-{4-[(cyclopentylamino)methyl]phenyl}-3-[1-(ethylsulfonyl)-4-piperidinyl]-1H-indole-7-carboxamide trifluoroacetate]: the IC50 in test [1] is not above 10 µM. Besides, the pIC50 in test [2] was less than 6.00.

As for `CCS(=O)(=O)N1CCC(c2c[nH]c3c(C(N)=O)cc(-c4ccc(CNC5CCC5)cc4)cc23)CC1` [Example 144, 5-{4-[(cyclobutylamino)methyl]phenyl}-3-[1-(ethylsulfonyl)-4-piperidinyl]-1H-indole-7-carboxamide], in test [1], the IC50 was not above 10 µM. Also, the pIC50 in test [2] was not below 5.82.

`CCS(=O)(=O)N1CCC(c2c[nH]c3c(C(N)=O)cc(-c4ccc(CN(C)C)cc4)cc23)CC1` [Example 146, 5-{4-[(dimethylamino)methyl]phenyl}-3-[1-(ethylsulfonyl)-4-piperidinyl]-1H-indole-7-carboxamide]: in test [1], the IC50 was not above 10 µM. Also, the negative-log IC50 (pIC50) in test [2] is less than 6.00.

With `CCN(CC)Cc1ccc(-c2cc(C(N)=O)c3[nH]cc(C4CCN(S(=O)(=O)CC)CC4)c3c2)cc1` [Example 147, 5-{4-[(diethylamino)methyl]phenyl}-3-[1-(ethylsulfonyl)-4-piperidinyl]-1H-indole-7-carboxamide], in test [1], the IC50 is not above 10 µM. In test [2], this compound had a pIC50 of less than 6.00.

`CCS(=O)(=O)N1CCC(c2c[nH]c3c(C(N)=O)cc(-c4ccc(CN[C@H](C)CO)cc4)cc23)CC1` [Example 151, 3-[1-(ethylsulfonyl)-4-piperidinyl]-5-[4-({[(1R)-2-hydroxy-1-methylethyl]amino}methyl)phenyl]-1H-indole-7-carboxamide trifluoroacetate]: the IC50 in test [1] is not above 10 µM. Further, the pIC50 in test [2] was not below 5.82.

In the case of `CCS(=O)(=O)N1CCC(c2c[nH]c3c(C(N)=O)cc(-c4ccc(CNC(CO)CO)cc4)cc23)CC1` [Example 153, 3-[1-(ethylsulfonyl)-4-piperidinyl]-5-[4-({[2-hydroxy-1-(hydroxymethyl)ethyl]amino}methyl)phenyl]-1H-indole-7-carboxamide trifluoroacetate], the IC50 in test [1] is not above 10 µM. In test [2], the pIC50 is less than 6.00.
